Measurements from patent publication US9150632B2 (Indiana University Research and Technology Corporation, priority 2009, dated 2015).
Non-standard residues stand in square brackets, D forms with d. Residues, ends and D or L forms follow the SMILES beside them. Dab = NCC[C@H](N)C(=O)O; Aib = CC(C)(N)C(=O)O

These compounds were tested against T1, glucagon receptor (Homo sapiens, UniProt P47871) (assay: Functional assay-cAMP synthesis, luciferase reporter in HEK293 cells, glucagon receptor). Conditions: Table 26, glucagon receptor.
T1 construct: expressed in transfected cells; host or cells: HEK293
Assay type: cell-based
Parameters: % activity: concentration or dose not given beside the values

T1 sequence (P47871 26-477): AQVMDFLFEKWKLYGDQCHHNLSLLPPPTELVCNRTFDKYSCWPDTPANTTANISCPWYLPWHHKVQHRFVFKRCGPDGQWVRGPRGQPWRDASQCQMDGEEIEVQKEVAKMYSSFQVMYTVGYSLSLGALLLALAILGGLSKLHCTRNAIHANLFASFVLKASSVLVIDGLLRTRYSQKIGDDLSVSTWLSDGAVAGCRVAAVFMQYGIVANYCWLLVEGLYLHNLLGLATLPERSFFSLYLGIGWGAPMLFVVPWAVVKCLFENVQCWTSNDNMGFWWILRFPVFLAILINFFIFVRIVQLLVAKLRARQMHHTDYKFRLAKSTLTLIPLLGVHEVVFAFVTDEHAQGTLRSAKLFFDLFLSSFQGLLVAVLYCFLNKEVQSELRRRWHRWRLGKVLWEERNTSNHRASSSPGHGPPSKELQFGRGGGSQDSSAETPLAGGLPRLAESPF

Row | % activity [%] | Compound
1 | 19 | CCCC[C@H](NC(=O)[C@H](CC(C)C)NC(=O)[C@H](Cc1c[nH]c2ccccc12)NC(=O)[C@H](C)NC(=O)[C@@H](NC(=O)[C@H](Cc1ccccc1)NC(=O)[C@H](CCC(=O)O)NC(=O)[C@H](C)NC(=O)[C@H](C)NC(=O)[C@H](CCCNC(=N)N)NC(=O)[C@H](CCCNC(=N)N)NC(=O)[C@@H](NC(=O)[C@H](CC(=O)O)NC(=O)[C@H](CC(C)C)NC(=O)[C@H](Cc1ccc(O)cc1)NC(=O)[C@H](CCCCN)NC(=O)[C@H](CO)NC(=O)[C@H](Cc1ccc(O)cc1)NC(=O)[C@H](CC(=O)O)NC(=O)[C@H](CO)NC(=O)[C@@H](NC(=O)[C@H](Cc1ccccc1)NC(=O)[C@@H](NC(=O)CNC(=O)[C@H](CCNC(C)=O)NC(=O)[C@H](CO)NC(=O)[C@@H](N)Cc1c[nH]cn1)[C@@H](C)O)[C@@H](C)O)[C@@H](C)O)C(C)C)C(=O)N[C@@H](CC(=O)O)C(=O)N[C@@H](CCC(=O)O)C(=O)O [SEQ ID NO: 595]
2 | 13 | CCCC[C@H](NC(=O)[C@H](CC(C)C)NC(=O)[C@H](Cc1c[nH]c2ccccc12)NC(=O)[C@H](C)NC(=O)[C@@H](NC(=O)[C@H](Cc1ccccc1)NC(=O)[C@H](CCC(=O)O)NC(=O)[C@H](C)NC(=O)[C@H](C)NC(=O)[C@H](CCCNC(=N)N)NC(=O)[C@H](CCCNC(=N)N)NC(=O)[C@@H](NC(=O)[C@H](CC(=O)O)NC(=O)[C@H](CC(C)C)NC(=O)[C@H](Cc1ccc(O)cc1)NC(=O)[C@H](CCCCN)NC(=O)[C@H](CO)NC(=O)[C@H](Cc1ccc(O)cc1)NC(=O)[C@H](CC(=O)O)NC(=O)[C@H](CO)NC(=O)[C@@H](NC(=O)[C@H](Cc1ccccc1)NC(=O)[C@@H](NC(=O)CNC(=O)[C@H](CNC(N)=O)NC(=O)[C@H](CO)NC(=O)[C@@H](N)Cc1c[nH]cn1)[C@@H](C)O)[C@@H](C)O)[C@@H](C)O)C(C)C)C(=O)N[C@@H](CC(=O)O)C(=O)N[C@@H](CCC(=O)O)C(=O)O [SEQ ID NO: 596]

Continued, compound first:

Row | Compound | % activity [%]
3 | CCCC[C@H](NC(=O)[C@H](CC(C)C)NC(=O)[C@H](Cc1c[nH]c2ccccc12)NC(=O)[C@H](C)NC(=O)[C@@H](NC(=O)[C@H](Cc1ccccc1)NC(=O)[C@H](CCC(=O)O)NC(=O)[C@H](C)NC(=O)[C@H](C)NC(=O)[C@H](CCCNC(=N)N)NC(=O)[C@H](CCCNC(=N)N)NC(=O)[C@@H](NC(=O)[C@H](CC(=O)O)NC(=O)[C@H](CC(C)C)NC(=O)[C@H](Cc1ccc(O)cc1)NC(=O)[C@H](CCCCN)NC(=O)[C@H](CO)NC(=O)[C@H](Cc1ccc(O)cc1)NC(=O)[C@H](CC(=O)O)NC(=O)[C@H](CO)NC(=O)[C@@H](NC(=O)[C@H](Cc1ccccc1)NC(=O)[C@@H](NC(=O)CNC(=O)[C@H](CCC(N)=O)NC(=O)[C@H](CO)NC(=O)[C@@H](N)Cc1c[nH]cn1)[C@@H](C)O)[C@@H](C)O)[C@@H](C)O)C(C)C)C(=O)N[C@@H](CC(=O)O)C(=O)N[C@@H](CCC(=O)O)C(=O)O [SEQ ID NO: 593] | 25
4 | CCCC[C@H](NC(=O)[C@H](CC(C)C)NC(=O)[C@H](Cc1c[nH]c2ccccc12)NC(=O)[C@H](C)NC(=O)[C@@H](NC(=O)[C@H](Cc1ccccc1)NC(=O)[C@H](CCC(=O)O)NC(=O)[C@H](C)NC(=O)[C@H](C)NC(=O)[C@H](CCCNC(=N)N)NC(=O)[C@H](CCCNC(=N)N)NC(=O)[C@@H](NC(=O)[C@H](CC(=O)O)NC(=O)[C@H](CC(C)C)NC(=O)[C@H](Cc1ccc(O)cc1)NC(=O)[C@H](CCCCN)NC(=O)[C@H](CO)NC(=O)[C@H](Cc1ccc(O)cc1)NC(=O)[C@H](CC(=O)O)NC(=O)[C@H](CO)NC(=O)[C@@H](NC(=O)[C@H](Cc1ccccc1)NC(=O)[C@@H](NC(=O)CNC(=O)[C@H](CSCNC(C)=O)NC(=O)[C@H](CO)NC(=O)[C@@H](N)Cc1c[nH]cn1)[C@@H](C)O)[C@@H](C)O)[C@@H](C)O)C(C)C)C(=O)N[C@@H](CC(=O)O)C(=O)N[C@@H](CCC(=O)O)C(=O)O [SEQ ID NO: 594] | 33

Same assay, conditions: Table 27, glucagon receptor

Row | % activity [%] | Compound
5 | 54 | CC(=O)NCC[C@H](NC(=O)[C@H](CO)NC(=O)[C@@H](N)Cc1c[nH]cn1)C(=O)NCC(=O)N[C@H](C(=O)N[C@@H](Cc1ccccc1)C(=O)N[C@H](C(=O)N[C@@H](CO)C(=O)N[C@@H](CC(=O)O)C(=O)N[C@@H](Cc1ccc(O)cc1)C(=O)N[C@@H](CO)C(=O)N[C@@H](CCCCN)C(=O)N[C@@H](Cc1ccc(O)cc1)C(=O)N[C@@H](CC(C)C)C(=O)N[C@@H](CC(=O)O)C(=O)NC(C)(C)C(=O)N[C@@H](CCCNC(=N)N)C(=O)N[C@@H](CCCNC(=N)N)C(=O)N[C@@H](C)C(=O)N[C@@H](CO)C(=O)N[C@@H](CC(=O)O)C(=O)N[C@@H](Cc1ccccc1)C(=O)N[C@H](C(=O)N[C@@H](CO)C(=O)N[C@@H](Cc1c[nH]c2ccccc12)C(=O)N[C@@H](CC(C)C)C(=O)N[C@@H](CC(C)C)C(=O)N[C@@H](CC(=O)O)C(=O)N[C@@H](CCC(=O)O)C(=O)O)C(C)C)[C@@H](C)O)[C@@H](C)O (H-HS[Dab](Ac)GTFTSDYSKYLD[Aib]RRASDFVSWLLDE-OH; N-terminus and C-terminus assumed)
6 | 46 | CC(=O)NCC[C@H](NC(=O)[C@H](CO)NC(=O)[C@@H](N)Cc1c[nH]cn1)C(=O)NCC(=O)N[C@H](C(=O)N[C@@H](Cc1ccccc1)C(=O)N[C@H](C(=O)N[C@@H](CO)C(=O)N[C@@H](CC(=O)O)C(=O)N[C@@H](Cc1ccc(O)cc1)C(=O)N[C@@H](CO)C(=O)N[C@@H](CCCCN)C(=O)N[C@@H](Cc1ccc(O)cc1)C(=O)N[C@@H](CC(C)C)C(=O)N[C@@H](CC(=O)O)C(=O)NC(C)(C)C(=O)N[C@@H](CCCNC(=N)N)C(=O)N[C@@H](CCCNC(=N)N)C(=O)N[C@@H](C)C(=O)N[C@H](C(=O)N[C@@H](CC(=O)O)C(=O)N[C@@H](Cc1ccccc1)C(=O)N[C@H](C(=O)N[C@H](C(=O)N[C@@H](Cc1c[nH]c2ccccc12)C(=O)N[C@@H](CC(C)C)C(=O)N[C@@H](CC(C)C)C(=O)N[C@@H](CC(=O)O)C(=O)N[C@@H](CCC(=O)O)C(=O)O)[C@@H](C)O)C(C)C)[C@@H](C)O)[C@@H](C)O)[C@@H](C)O (H-HS[Dab](Ac)GTFTSDYSKYLD[Aib]RRATDFVTWLLDE-OH; N-terminus and C-terminus assumed)

Row | Compound | % activity [%]
7 | CC(=O)NCC[C@H](NC(=O)[C@H](CO)NC(=O)[C@@H](N)Cc1c[nH]cn1)C(=O)NCC(=O)N[C@H](C(=O)N[C@@H](Cc1ccccc1)C(=O)N[C@H](C(=O)N[C@@H](CO)C(=O)N[C@@H](CC(=O)O)C(=O)N[C@@H](Cc1ccc(O)cc1)C(=O)N[C@@H](CO)C(=O)N[C@@H](CCCCN)C(=O)N[C@@H](Cc1ccc(O)cc1)C(=O)N[C@@H](CC(C)C)C(=O)N[C@@H](CC(=O)O)C(=O)NC(C)(C)C(=O)N[C@@H](CCCNC(=N)N)C(=O)N[C@@H](CCCNC(=N)N)C(=O)N[C@@H](C)C(=O)N[C@@H](C)C(=O)N[C@@H](CC(=O)O)C(=O)N[C@@H](Cc1ccccc1)C(=O)N[C@H](C(=O)N[C@@H](C)C(=O)N[C@@H](Cc1c[nH]c2ccccc12)C(=O)N[C@@H](CC(C)C)C(=O)N[C@@H](CC(C)C)C(=O)N[C@@H](CC(=O)O)C(=O)N[C@H](C(=O)NCC(=O)N1CCC[C@H]1C(=O)N[C@@H](CO)C(=O)N[C@@H](CO)C(=O)NCC(=O)N[C@@H](C)C(=O)N1CCC[C@H]1C(=O)N1CCC[C@H]1C(=O)N1CCC[C@H]1C(=O)N[C@@H](CO)C(N)=O)[C@@H](C)O)C(C)C)[C@@H](C)O)[C@@H](C)O (H-HS[Dab](Ac)GTFTSDYSKYLD[Aib]RRAADFVAWLLDTGPSSGAPPPS-NH2; N-terminus assumed) | 113
